Data published in patent publication US11999727B2 (Tango Therapeutics, Inc., priority 2020, dated 2024).

Columns and labels:
PRMT5 [1] = biological target: T1, PRMT5 (Homo sapiens, UniProt O14744); assay: PRMT5 biochemical IC50 assay with SAM as cofactor; conditions: PRMT5, SAM as cofactor; read-out: SAM IC50
T1 construct: purchased Viva (custom protein)

PRMT5 [2] = biological target: T1, PRMT5; assay: PRMT5 biochemical IC50 assay with no cofactor; conditions: PRMT5, no cofactor
Source text: Table 1 indicates IC50 values (μM) against PRMT5 for exemplary compounds in the presence of SAM as cofactor, with no cofactor, and with MTA as cofactor, respectively (columns 4-6). […] Ki values can be calculated from the IC50 values as described in the Examples section. As detailed in the Examples section, for the assay performed in the presence of SAM, IC50=Ki×1.5 (Ki=IC50/1.5).

PRMT5 [3] = biological target: T1, PRMT5; assay: PRMT5 biochemical IC50 assay with MTA as cofactor; conditions: PRMT5, MTA as cofactor; read-out: MTA IC50
[4] = tested on: HAP1 MTAP-intact cell line; assay: SDMA in-cell western assay, HAP1 MTAP-intact; assay type: cell-based; conditions: Homo sapiens, HAP1, SDMA in-cell western, HAP1 MTAP-intact; read-out: MTAP HAP1 intact IC50
Outline: (§1)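 Readout: in-cell western detection of SDMA. Cells: HAP1 expressing endogenous MTAP and an MTAP-null HAP1 counterpart. Output: IC50.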

[5] = tested on: HAP1 MTAP-deleted cell line; assay: SDMA in-cell western assay, HAP1 MTAP-deleted; assay type: cell-based; conditions: for IC50: Homo sapiens, HAP1, SDMA in-cell western, HAP1 MTAP-deleted; for MTAP intact/deleted ratio: SDMA in-cell western
Outline: as §1

[6] = tested on: HAP1 MTAP-deleted cell line; assay: Viability assay, MTAP-deleted cell line; assay type: cell-based; conditions: Homo sapiens, read-out: HAP1 MTAP deleted viability
Source text: Table 1 additionally indicates IC50 values in a viability assay for the MTAP-deleted cell line (column 10), indicating the effect of treatment with compound on cell survival.

[7] = read-out: HAP1 MTAP deleted IC50
[8] = HAP1, viability assay, MTAP-deleted cell line
[9] = IC50 ratio HAP1 MTAP-intact / HAP1 MTAP-deleted
[10] = HAP1, viability assay, HAP1 MTAP-deleted
[11] = read-out: No Cofactor/ rel IC50
[12] = read-out: HAP 1 MTAP deleted IC50
[13] = HAP1, viability, HAP1 MTAP-deleted cell line

T1 sequence (O14744 whole entry): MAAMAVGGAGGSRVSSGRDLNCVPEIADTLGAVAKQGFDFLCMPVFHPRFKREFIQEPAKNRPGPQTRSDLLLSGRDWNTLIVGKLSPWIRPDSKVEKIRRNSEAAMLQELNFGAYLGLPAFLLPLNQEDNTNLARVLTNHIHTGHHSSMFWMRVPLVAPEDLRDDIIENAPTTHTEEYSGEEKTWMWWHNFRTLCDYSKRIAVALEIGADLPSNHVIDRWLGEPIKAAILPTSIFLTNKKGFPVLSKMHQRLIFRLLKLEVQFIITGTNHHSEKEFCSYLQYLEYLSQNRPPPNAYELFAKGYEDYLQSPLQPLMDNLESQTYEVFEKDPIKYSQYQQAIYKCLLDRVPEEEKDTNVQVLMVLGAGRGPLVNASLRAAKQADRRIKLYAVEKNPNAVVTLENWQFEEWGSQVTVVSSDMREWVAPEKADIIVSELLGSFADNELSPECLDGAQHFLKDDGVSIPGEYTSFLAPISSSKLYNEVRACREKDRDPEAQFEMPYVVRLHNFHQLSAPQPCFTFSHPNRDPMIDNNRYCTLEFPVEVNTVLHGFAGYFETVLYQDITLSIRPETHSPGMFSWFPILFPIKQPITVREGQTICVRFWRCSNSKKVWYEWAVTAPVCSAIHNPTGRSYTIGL
T1 sequence (Q9BQA1 whole entry partner): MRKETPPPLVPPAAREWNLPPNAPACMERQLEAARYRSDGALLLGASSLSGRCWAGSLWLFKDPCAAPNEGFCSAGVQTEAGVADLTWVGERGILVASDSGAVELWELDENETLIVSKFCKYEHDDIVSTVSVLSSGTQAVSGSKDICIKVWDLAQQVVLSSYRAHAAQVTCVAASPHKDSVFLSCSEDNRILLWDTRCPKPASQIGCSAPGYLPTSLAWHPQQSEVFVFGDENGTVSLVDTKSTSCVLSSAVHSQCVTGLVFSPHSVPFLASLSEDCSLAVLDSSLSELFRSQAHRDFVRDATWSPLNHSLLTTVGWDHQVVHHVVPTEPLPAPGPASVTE

SMILES | IC50 (PRMT5 [1]) | IC50 (PRMT5 [2]; read-out: No Cofactor/rel IC50) | IC50 (PRMT5 [3]) | IC50 [4] | IC50 [5, 7] | MTAP intact/deleted ratio ([5]; IC50 ratio HAP1 MTAP-intact vs HAP1 MTAP-deleted) | IC50 [6, 8] | MTAP intact/deleted ratio [5, 9] | IC50 [6, 10] | IC50 (PRMT5 [2]; [11]) | IC50 [5, 12] | IC50 [6, 13] | IC50 ([6]; HAP1, viability IC50, MTAP-deleted cell line)
CCc1cc(NC(=O)C(=O)N2C[C@@H](C)CC[C@@H]2c2ccc3sc(C4CC5CCC(C4)N5C)nc3c2)cnc1N (stereo partly drawn) [Compound 1187, N-(6-amino-5-ethyl-3-pyridyl)-2-[(2R,5S)-5-methyl-2-[2-(8-methyl-8-azabicyclo[3.2.1]octan-3-yl)-1,3-benzothiazol-5-yl]-1-piperidyl]-2-oxo-acetamide] | < 50 nM | < 50 nM | < 50 nM | < 100 nM | < 100 nM | A (an IC50 ratio greater than or equal to 10 fold) | < 1000 nM |  |  |  |  |  | 
Cc1cc(NC(=O)C(=O)N2C[C@@H](C)CC[C@@H]2c2cc(F)c(F)c(Cl)c2)cnc1N (single isomer, unassigned) [Compound 857] | 50 to 500 nM | 50 to 500 nM | < 50 nM | > 1000 nM | < 100 nM |  |  | A (an IC50 ratio greater than or equal to 10 fold) | 1000 to 10000 nM |  |  |  | 
Cc1cc([C@@H]2CC[C@@H](C)CN2C(=O)C(=O)Nc2cncc(C(N)=O)c2)cc(C)c1O (single isomer, unassigned) [Compound 335] | 50 to 500 nM | 50 to 500 nM | < 50 nM | > 1000 nM | < 100 nM |  | 1000 to 10000 nM | A (an IC50 ratio greater than or equal to 10 fold) |  |  |  |  | 
Cc1cc(NC(=O)C(=O)N2C[C@H]3CC[C@H](C3)[C@H]2c2ccccc2)cnc1N (single isomer, unassigned) [Compound 65] | 50 to 500 nM |  | 50 to 500 nM | > 1000 nM |  |  | 1000 to 10000 nM | A (an IC50 ratio greater than or equal to 10 fold) |  | 50 to 500 nM | < 100 nM |  | 
CCc1cc(NC(=O)C(=O)N2C[C@H](C)CC[C@H]2c2ccc3sc(CCOC)nc3c2)cnc1N (single isomer, unassigned) [Compound 1375] | > 500 nM |  | > 500 nM | > 1000 nM |  |  |  |  |  | > 500 nM | > 1000 nM | > 10000 nM | 
CCc1cc(NC(=O)C(=O)N2C[C@@H](C)CC[C@@H]2c2ccc(C(N)=O)s2)cnc1N (single isomer, unassigned) [Compound 845] | > 500 nM | > 500 nM | > 500 nM | > 1000 nM | > 1000 nM |  |  | B (an IC50 ratio greater than or equal to 3 fold but lower than 10 fold) | > 10000 nM |  |  |  | 
C[C@@H]1CC[C@@H](c2ccc(F)nc2)N(C(=O)C(=O)Nc2cncc(C(N)=O)c2)C1 (racemic) [Compound 276, rac-5-{2-[(2R,5S)-2-(6-Fluoropyridin-3-yl)-5-methylpiperidin-1-yl]-2-oxoacetamido}pyridine-3-carboxamide] | 50 to 500 nM | 50 to 500 nM | < 50 nM | > 1000 nM | 100 to 1000 nM |  | > 10000 nM | A (an IC50 ratio greater than or equal to 10 fold) |  |  |  |  | 
C[C@@H]1CC[C@@H]([C@H]2CC[C@@H](O)CC2)N(C(=O)C(=O)Nc2cncc(C(N)=O)c2)C1 (single isomer, unassigned) [Compound 393] | 50 to 500 nM | > 500 nM | 50 to 500 nM | > 1000 nM | > 1000 nM |  | > 10000 nM | B (an IC50 ratio greater than or equal to 3 fold but lower than 10 fold) |  |  |  |  | 
C[C@H]1CC[C@H](c2ccc3[nH]ncc3c2F)N(C(=O)C(=O)Nc2cncc(C(N)=O)c2)C1 (single isomer, unassigned) [Compound 637] | > 500 nM | > 500 nM | > 500 nM | > 1000 nM |  |  |  | A (an IC50 ratio greater than or equal to 10 fold) |  |  | 100 to 1000 nM |  | > 10000 nM
CCc1cc(NC(=O)C(=O)N2C[C@@H](C)CC[C@@H]2c2ccc3sc(C4CCN(C)C4)nc3c2)cnc1N (stereo partly drawn) [Compound 1383] | < 50 nM |  | < 50 nM | < 100 nM |  |  |  | A (an IC50 ratio greater than or equal to 10 fold) |  | < 50 nM | < 100 nM | < 1000 nM | 
